Experimental findings from US20140322704A1, “Hepatitis Virus Culture Systems Using Stem Cell-Derived Human Hepatocyte-Like Cells and Their Methods of Use” (The Florida State University Research Foundation, Inc., priority 2011, published 2014) are described below.

Common to all, as to assay type: cell-based
The test system of one assay is JFH-1 based HCVcc. Nature of the assay: HCVcc infection of DHHs in the presence of HCV inhibitors (FIG. 2D). An excerpt:
FIG. 2 depicts the results of experiments assessing infection of DHHs derived from hESCs and iPSCs. (A) Detection of HCV proteins in DHHs infected with JFH-1 based HCVcc. DHHs were inoculated with three different preparations of HCVcc at day 13 post-differentiation and cell lysates collected at day 21 for western blot analysis. The anti-NS3 antibody also recognized a non-specific band in the mock infected sample. (B) Immunostaining of infected DHHs. A JFH variant containing a FLAG tag in the NS5A protein was used to infect either Huh-7.5 or DHHs and staining was done with an anti-FLAG antibody. (C) Infection of Huh-7.5 and DHHs as measured by the HCV-dependent fluorescence relocalization assay. Reporter-transduced cells were infected with HCVcc and the cells were fixed for immunofluorescence analysis 72 hours post-infection. For the RFP-NLS-IPS expressing cells, HCV infection leads to complete nuclear translocation of the RFP; for the EGFP-IPS cells, HCV infection leads to redistribution of green fluorescence from a reticulate cytoplasmic pattern to a diffused pattern with a nuclear enrichment. […] The following inhibitors were included in the infection experiments. IFN: interferon-α, 80 units/ml; AR3A: anti-E2 neutralizing antibody, 1 μg/ml; ITX: ITX5061, an SR-BI inhibitor, 1 μM. (E) Comparison of HCVcc infection levels in DHHs and PHHs. PHHs were infected for 8 days to keep the infected days the same between the two cell types (DHHs were infected at day 13 and the lysed at day 21). (F) Infection of DHHs derived from an iPSC line. Differentiation and infection of iPS.K3 were performed as described for H9-derived DHHs (FIG. 1 and FIG. 2A).
All JFH-1 based HCVcc (Mut4-6, SAV, Jc1/GLuc2A, and DEYN-Jc1/GLuc2A) were produced in Huh-7.5 cells as previously described (2005, Lindenbach, et al., Science 309:623-626). Genotype 1b HCVser was obtained from a commercial supplier (Teragenix, Ft. Lauderdale, Fla.). All infections were done by incubating virus inoculum with cells for 6-9 hours before the cells were washed and changed into the appropriate medium for the specific cell type and differentiation stage. For the time course of DHHs permissiveness, infection of each time point was allowed to proceed for exactly 48 hours before cell harvesting and western blotting. Immunofluorescence analysis of HCV receptors and intracellular antigens. Cells were fixed in 4% paraformaldehyde in phosphate-buffered saline (PBS) at room temperature for 10 minutes and blocked with PBGB (PBS containing 10% normal goat serum, and 1% bovine serum albumin (BSA)) at room temperature for 2 hours. Cells were incubated with primary antibodies (anti-CD81, anti-SR-B1, anti-claudin 1 and anti-occludin, diluted in PBG at 1:200) at 4° C. overnight or 2 hours at room temperature. […]

The subject of a further assay is genotype 1b HCVser. Nature of the assay: Infection of DHHs by patient serum-derived HCV, western blotting (FIG. 7A). To be noted: IFN-α 50 units/ml; genotype 1b patient serum; 48 hours. An excerpt:
FIG. 7 depicts the results of experiments assessing the direct infection of DHHs by HCV derived from patient serum. (A) Detection of IFN-sensitive HCVser infection by western blotting IFN-α was included in the medium at 50 units/ml when indicated. (B) Visualization of single cell infection events by HCVser using the HCV-dependent fluorescence relocalization assay. Arrows indicate individual cells infected with HCVser and showing nuclear translocation of the RFP. (C) Secretion of HCV core antigen into culture supernatant by HCVser-infected DHHs. Values for core levels in supernatants collected 48 hours post-infection were plotted. IFN-α was included in the medium at 50 units/ml when indicated. Error bars represent standard deviation of replicate experiments. (D) HCVser preferentially infected DHHs over Huh-7.5 cells. […]
Although robust infection of PHHs by HCVcc has been reported (2010, Podevin et al., Gastroenterology 1355-1364; 2010, Ploss et al., Proc Natl Acad Sci USA 107:3141-3145; 2010, Banaudha et al., Hepatology 51:1922-1932), direct infection by HCV derived from patient serum (HCVser) remained inefficient (2010, Podevin et al., Gastroenterology. 139:1355-1364; 1998, Fournier et al., J Gen Virol. 79:2367-2374). […] In addition, secretion of HCV core antigen was detected in the supernatant of the DHHs infected by HCVser (FIG. 7C).

A further assay has as its system HCVcc. Nature of the assay: Secretion of HCV core antigen into culture medium by HCVcc-infected DHHs, core ELISA (FIG. 3B). To be noted: IFN-α 50 units/ml; 48 hours after infection; H9-derived DHHs. As to the method: FIG. 3 depicts the results of experiments showing that DHHs support persistent infection and secrete infectious HCV particles. (A) Continuous replication of HCVcc in DHHs. Day-10 DHHs were infected with Jc1/GLuc2A for 9 hours before the inoculum was removed and the cells were changed into medium E with or without a cyclophilin inhibitor CsA at 1 μg/ml. Culture supernatants were collected daily to measure luciferase activity. The culture media was replaced with thorough washing every 48 hours and CsA was included every time fresh media was used. Error bars represent standard deviation from triplicate experiments. (B) Secretion of HCV core antigen into the culture medium by infected DHHs. […]
To quantify miR-122 levels, TRIzol extracted RNA samples were reverse transcribed using TaqMan MicroRNA Reverse Transcription kit (Applied Biosystems) and the resulting cDNA served as templates for Real-Time PCR analysis using TaqMan MicroRNA Assay for miR-122 (Applied Biosystems). […]
To verify continuous viral replication during the infection period, the secretion of Gaussia luciferase into the culture media by the DHHs infected with the GLuc reporter virus was monitored using a procedure previously used to monitor persistent HCV infection in microscale PHHs (2010, Floss et al., Proc Natl Acad Sci USA 107:3141-3145). […]
A general note: ELISA stands for enzyme-linked immunosorbent assay.

Turning to `COc1c(NC(=O)C(=O)c2ccc(OCCN3CCOCC3)c3ccccc23)cc(C(C)(C)C)cc1NS(C)(=O)=O` [ITX5061], the “HCV infection in DHHs” value in the assay on JFH-1 based HCVcc (ITX5061 1 μM) is reported as “abolished HCV infection”; in the assay on JFH-1 based HCVcc (ITX5061 1 μM, listed as small molecule compound that inhibits the scavenger receptor class B type I (SR-) it was “efficiently blocked infection”.
Turning to interferon-α [IFN-α], the “HCVser infection of DHHs detected by western blotting” value with genotype 1b HCVser is “sensitive to IFN inhibition”. Also, the “HCV core antigen in the supernatant of infected cells” value in the assay with HCVcc is “not in that of the similarly infected but IFN-treated cells”. Besides, the “HCV infection in DHHs” value in the assay with JFH-1 based HCVcc (interferon-α 80 units/ml) was “efficiently blocked infection”; with JFH-1 based HCVcc (interferon-α 80 units/ml, listed as IFN) it was “abolished HCV infection”.
